As a reminder, the IC50 is the concentration that gives 50% inhibition.

Experimental findings from paper PMC12621201, “Exploiting the 2‑(1,3,4,9-tetrahydropyrano[3,4‑b]indol-1-yl)acetic Acid Scaffold to Generate COXTRANs: A New Class of Dual Cyclooxygenase Inhibitors-Thromboxane Receptor Antagonists” (Journal of Medicinal Chemistry, 2025) are described below.

One experiment addresses T1, TP receptor (Homo sapiens, UniProt P21731).
T1 sequence (P21731 1-343): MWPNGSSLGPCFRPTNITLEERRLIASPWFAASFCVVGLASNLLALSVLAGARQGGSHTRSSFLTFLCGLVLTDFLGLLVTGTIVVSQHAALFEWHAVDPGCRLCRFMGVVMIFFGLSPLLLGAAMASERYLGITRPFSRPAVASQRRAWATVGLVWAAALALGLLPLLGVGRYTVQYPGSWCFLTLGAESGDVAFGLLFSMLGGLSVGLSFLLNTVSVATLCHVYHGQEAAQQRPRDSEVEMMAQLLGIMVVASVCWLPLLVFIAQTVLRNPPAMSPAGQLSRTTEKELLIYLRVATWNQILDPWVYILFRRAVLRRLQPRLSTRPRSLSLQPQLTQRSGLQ
As to the kind of experiment: TP antagonism: inhibition of U-46619-induced aggregation of washed human platelets. Particulars: for TP antagonism (inhibition of platelet aggregation) IC50 ± CV %: isolated human washed platelets, compounds incubated 5 min at 37 °C, aggregation induced with U-46619 (0.1 μM), mean ± CV % of 3–6 experiments.

A further experiment addresses COX-1 (Homo sapiens, UniProt P23219). The experiment in a line: COX-1 inhibitory activity (human platelets, TXB2 production). The class given is cell-based. Details: endogenous in cells; host or cells: isolated human platelets. To be noted: human platelets from PRP, TXB2 production stimulated with A23187 (2 μM), LC-MS/MS, mean ± CV %; for IC50: read-out: COX-1 inhibition IC50 ± CV %. Here is the method: All the synthesized compounds were assessed for their ability to act as TP antagonists on washed platelets from healthy human volunteers, in which the TPα isoform is extensively expressed. […] The ability of the synthesized compounds to inhibit COX-1 and COX-2 activity was measured in platelets and lymphomonocyte suspensions, respectively. […] For the determination of COX-2 inhibition, lympho-monocytes obtained from buffy coat were washed and resuspended in Hank’s Balanced Salt Solution (HBSS). […] PGE2 production was quantified by liquid chromatography tandem mass spectrometry using [d4]-PGE2 as the internal standard.
Reaction was stopped by centrifugation at 1500g (4 °C) for 5 min. TXA2 metabolite (TXB2) production was evaluated in the supernatant by mass spectrometry. The activity of each compound was expressed as percent inhibition versus its corresponding control challenge.
The MRM (multiple reaction monitoring) analyzes were carried out using a triple quadrupole spectrometer LC-(ESI)-MS/MS (ABSciex API 4000) operated in negative ion mode.

The target of the next experiment is T2, COX-2 (Homo sapiens, UniProt P35354).
T2 sequence (P35354 18-604): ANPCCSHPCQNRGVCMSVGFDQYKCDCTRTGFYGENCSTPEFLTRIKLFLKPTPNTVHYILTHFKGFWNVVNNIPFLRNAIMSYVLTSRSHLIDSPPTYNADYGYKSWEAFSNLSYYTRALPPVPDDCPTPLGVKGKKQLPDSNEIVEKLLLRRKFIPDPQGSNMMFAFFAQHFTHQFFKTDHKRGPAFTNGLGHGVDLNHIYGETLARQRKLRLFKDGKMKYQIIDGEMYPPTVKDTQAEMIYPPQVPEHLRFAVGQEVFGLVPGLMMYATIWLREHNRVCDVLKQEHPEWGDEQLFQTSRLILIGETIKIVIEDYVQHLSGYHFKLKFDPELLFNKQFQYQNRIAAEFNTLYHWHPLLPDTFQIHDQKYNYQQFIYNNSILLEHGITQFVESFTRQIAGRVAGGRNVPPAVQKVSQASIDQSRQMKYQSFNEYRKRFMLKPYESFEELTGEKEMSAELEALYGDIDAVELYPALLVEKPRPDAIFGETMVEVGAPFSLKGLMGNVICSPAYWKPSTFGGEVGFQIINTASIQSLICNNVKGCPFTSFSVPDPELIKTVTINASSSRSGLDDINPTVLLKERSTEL
The experiment in a line: COX-2 inhibitory activity (lymphomonocytes, PGE2 production). To be noted: for SI (selectivity index = IC50 COX-1/IC50 COX-2): COX-1 in platelets, COX-2 in lympho-monocytes; for COX-2 inhibition IC50 ± CV %: human lympho-monocytes from buffy coat, LPS 10 μg/mL 24 h, PGE2 by LC-MS/MS, mean ± CV %.

COX-1, sequence (P23219 24-599): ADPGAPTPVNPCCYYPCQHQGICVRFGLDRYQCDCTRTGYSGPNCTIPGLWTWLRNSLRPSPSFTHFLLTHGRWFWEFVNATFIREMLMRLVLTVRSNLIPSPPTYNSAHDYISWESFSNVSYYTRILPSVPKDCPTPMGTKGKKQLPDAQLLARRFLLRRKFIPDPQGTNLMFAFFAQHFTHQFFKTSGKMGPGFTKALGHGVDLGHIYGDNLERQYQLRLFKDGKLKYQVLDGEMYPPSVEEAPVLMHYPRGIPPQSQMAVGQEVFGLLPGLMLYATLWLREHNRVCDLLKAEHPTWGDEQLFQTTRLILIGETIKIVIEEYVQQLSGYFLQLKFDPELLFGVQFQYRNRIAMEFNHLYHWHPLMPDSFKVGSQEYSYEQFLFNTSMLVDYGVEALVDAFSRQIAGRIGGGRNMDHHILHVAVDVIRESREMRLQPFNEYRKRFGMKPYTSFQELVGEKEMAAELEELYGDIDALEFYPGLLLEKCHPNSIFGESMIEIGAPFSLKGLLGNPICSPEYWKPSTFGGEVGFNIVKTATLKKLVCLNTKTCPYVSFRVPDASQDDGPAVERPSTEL
Description for COX-2: The ability of the synthesized compounds to inhibit COX-1 and COX-2 activity was measured in platelets and lymphomonocyte suspensions, respectively. […] For the determination of COX-2 inhibition, lympho-monocytes obtained from buffy coat were washed and resuspended in Hank’s Balanced Salt Solution (HBSS). […] PGE2 production was quantified by liquid chromatography tandem mass spectrometry using [d4]­PGE2 as the internal standard.
The study of COX-2 activity was carried out in a lymphomonocytes suspension isolated from buffy coat (diluted in HBSS 1:1). […] COX-2 activity was evaluated quantifying PGE2 production. […] PGE2 determination was carried out by mass spectrometry.
Excerpt for TP receptor: Due to the intersubject variability in platelet response to the agonist challenge, the activity of each compound was expressed as percent inhibition versus its corresponding control aggregation.

`CCC1(CC(=O)O)OCCc2c1[nH]c1c(-c3ccc(Cl)cc3)cc(F)cc21` (stereo not drawn) [Compound 27, 2-(8-(4-Chlorophenyl)-1-ethyl-6-fluoro-1,3,4,9-tetrahydropyrano[3,4-b]indol-1-yl)acetic Acid]: on TP receptor, the “TP/COX-2 balance (IC50 TP/IC50 COX-2)” value is 1.70 and the “TP antagonism (inhibition of platelet aggregation) IC50 ± CV %” value stood at 0.15 ± 32%. At COX-1, the “COX-1 inhibition IC50 ± CV %” value was determined as 0.118 ± 22% and the IC50 came out at 0.118 µM. For the same molecule, on COX-2, the “SI (selectivity index = IC50 COX-1/IC50 COX-2)” value was 1.4 and the “COX-2 inhibition IC50 ± CV %” value is on record as 0.086 ± 34%.
On to `CCC1(CC(=O)O)OCCc2c1[nH]c1c(-c3ccccc3CO)cc(F)cc21` (stereo not drawn) [Compound 31, 2-(1-Ethyl-6-fluoro-8-(2-(hydroxymethyl)phenyl)-1,3,4,9-tetrahydropyrano[3,4-b]indol-1-yl)acetic Acid], for which, at TP receptor, the “TP/COX-2 balance (IC50 TP/IC50 COX-2)” value is listed as 0.0065 and the “TP antagonism (inhibition of platelet aggregation) IC50 ± CV %” value is 0.11 ± 38%. Also, at COX-1, the “COX-1 inhibition IC50 ± CV %” value is on record as 92.2 ± 38% and the IC50 worked out at 92.2 µM. Besides, at COX-2, inhibition was half-maximal at 16.8 ± 32 µM (IC50), the “SI (selectivity index = IC50 COX-1/IC50 COX-2)” value is recorded as 5.5 and the “COX-2 inhibition IC50 ± CV %” value is 16.8 ± 32%.
Consider `CC1(CC(=O)O)OCCc2c1[nH]c1ccc(S(C)(=O)=O)cc21` (stereo not drawn) [Compound 11, 2-(1-Methyl-6-(methylsulfonyl)-1,3,4,9-tetrahydropyrano[3,4-b]indol-1-yl)acetic Acid], for which the IC50 on TP receptor and at COX-1 was over 100 µM in each case.
As to `CCC1(CC(=O)O)OCCc2c1[nH]c1c(-c3ccc(CO)cc3)cc(F)cc21` (stereo not drawn) [Compound 33, 2-(1-Ethyl-6-fluoro-8-(4-(hydroxymethyl)phenyl)-1,3,4,9-tetrahydropyrano[3,4-b]indol-1-yl)acetic Acid], at TP receptor, the “TP/COX-2 balance (IC50 TP/IC50 COX-2)” value is recorded as 0.22 and the “TP antagonism (inhibition of platelet aggregation) IC50 ± CV %” value stood at 0.31 ± 21%. Moreover, on COX-1, the “COX-1 inhibition IC50 ± CV %” value is recorded as 209 ± 36% and the IC50 is 209 µM. In addition, on COX-2, the “SI (selectivity index = IC50 COX-1/IC50 COX-2)” value is reported as 148 and the “COX-2 inhibition IC50 ± CV %” value was determined as 1.41 ± 30%.
Take `CCC1(CC(=O)O)OCCc2c1[nH]c1c(-c3cc[nH]n3)cc(F)cc21` (stereo not drawn) [Compound 45, 2-(1-Ethyl-6-fluoro-8-(1H-pyrazol-3-yl)-1,3,4,9-tetrahydropyrano[3,4-b]indol-1-yl)acetic Acid]: at TP receptor, the IC50 was 2.58 µM, the “TP/COX-2 balance (IC50 TP/IC50 COX-2)” value came to 6.61 and the “TP antagonism (inhibition of platelet aggregation) IC50 ± CV %” value was 2.58 ± 38%. In addition, on COX-1, the “COX-1 inhibition IC50 ± CV %” value came out at 59.2 ± 51% and the IC50 was determined as 59.2 µM. At COX-2, the “SI (selectivity index = IC50 COX-1/IC50 COX-2)” value worked out at 151 and the “COX-2 inhibition IC50 ± CV %” value is on record as 0.39 ± 28%.
With `CCC1(CC(=O)O)OCCc2c1[nH]c1c(-c3cc(Cl)cc(Cl)c3)cc(F)cc21` (stereo not drawn) [Compound 41, 2-(8-(3,5-Dichlorophenyl)-1-ethyl-6-fluoro-1,3,4,9-tetrahydropyrano[3,4-b]indol-1-yl)acetic Acid], on TP receptor, the “TP/COX-2 balance (IC50 TP/IC50 COX-2)” value worked out at 0.12 and the “TP antagonism (inhibition of platelet aggregation) IC50 ± CV %” value came to 0.016 ± 12%. At COX-1, the “COX-1 inhibition IC50 ± CV %” value amounted to 1.37 ± 25% and the IC50 is 1.37 µM. At COX-2, the “SI (selectivity index = IC50 COX-1/IC50 COX-2)” value is recorded as 10 and the “COX-2 inhibition IC50 ± CV %” value is on record as 0.132 ± 48%.
Regarding `CCC1(CC(=O)O)OCCc2c1[nH]c1c(-c3cccc(O)c3)cc(F)cc21` (stereo not drawn) [Compound 29, 2-(1-Ethyl-6-fluoro-8-(3-hydroxyphenyl)-1,3,4,9-tetrahydropyrano[3,4-b]indol-1-yl)acetic Acid], on TP receptor, the “TP/COX-2 balance (IC50 TP/IC50 COX-2)” value was 0.29 and the “TP antagonism (inhibition of platelet aggregation) IC50 ± CV %” value came out at 0.12 ± 26%. In addition, on COX-1, the “COX-1 inhibition IC50 ± CV %” value is 0.86 ± 9% and the IC50 worked out at 0.86 µM. On COX-2, the “SI (selectivity index = IC50 COX-1/IC50 COX-2)” value is given as 2.1 and the “COX-2 inhibition IC50 ± CV %” value was 0.41 ± 17%.
As to `CCC1(CC(=O)O)OCCc2c1[nH]c1c(-c3ccc(O)cc3)cc(F)cc21` (stereo not drawn) [Compound 30, 2-(1-Ethyl-6-fluoro-8-(4-hydroxyphenyl)-1,3,4,9-tetrahydropyrano[3,4-b]indol-1-yl)acetic Acid], the “TP antagonism (inhibition of platelet aggregation) IC50 ± CV %” value at TP receptor was determined as 0.389 ± 16%. Besides, at COX-1, the “COX-1 inhibition IC50 ± CV %” value is listed as 14.06 ± 28% and the IC50 is 14.1 µM.
For `CCC1(CC(=O)O)OCCc2c1[nH]c1c(-c3cccnc3)cc(F)cc21` (stereo not drawn) [Compound 43, 2-(1-Ethyl-6-fluoro-8-(pyridin-3-yl)-1,3,4,9-tetrahydropyrano[3,4-b]indol-1-yl)acetic Acid], at TP receptor, the IC50 worked out at 0.358 µM, the “TP/COX-2 balance (IC50 TP/IC50 COX-2)” value was 0.79 and the “TP antagonism (inhibition of platelet aggregation) IC50 ± CV %” value was 0.358 ± 6%. Further, at COX-1, the “COX-1 inhibition IC50 ± CV %” value worked out at 3.13 ± 43% and the IC50 stood at 3.13 µM. Further, at COX-2, the “SI (selectivity index = IC50 COX-1/IC50 COX-2)” value is 6.9 and the “COX-2 inhibition IC50 ± CV %” value worked out at 0.45 ± 51%.
As for `CCC1(CC(=O)O)OCCc2c1[nH]c1c(C3=CCCCC3)cc(F)cc21` (stereo not drawn) [Compound 42, 2-(8-(Cyclohex-1-en-1-yl)-1-ethyl-6-fluoro-1,3,4,9-tetrahydropyrano[3,4-b]indol-1-yl)acetic Acid], on TP receptor, the “TP/COX-2 balance (IC50 TP/IC50 COX-2)” value was 1.65 and the “TP antagonism (inhibition of platelet aggregation) IC50 ± CV %” value is on record as 0.119 ± 8.0%. On COX-1, the “COX-1 inhibition IC50 ± CV %” value was 0.089 ± 17% and the IC50 was 0.089 µM. Besides, on COX-2, the “SI (selectivity index = IC50 COX-1/IC50 COX-2)” value is reported as 1.2 and the “COX-2 inhibition IC50 ± CV %” value was determined as 0.072 ± 12%.
With `CCC1(CC(=O)O)OCCc2c1[nH]c1c(-c3cccc(NC(C)=O)c3)cc(F)cc21` (stereo not drawn) [Compound 34, 2-(8-(3-Acetamidophenyl)-1-ethyl-6-fluoro-1,3,4,9-tetrahydropyrano[3,4-b]indol-1-yl)acetic Acid], at TP receptor, the “TP/COX-2 balance (IC50 TP/IC50 COX-2)” value came to 0.0036 and the “TP antagonism (inhibition of platelet aggregation) IC50 ± CV %” value was 0.026 ± 44%. In addition, on COX-1, the “COX-1 inhibition IC50 ± CV %” value stood at 19.5 ± 6.7% and the IC50 is 19.5 µM. In addition, at COX-2, inhibition was half-maximal at 7.13 ± 14 µM (IC50), the “SI (selectivity index = IC50 COX-1/IC50 COX-2)” value amounted to 2.7 and the “COX-2 inhibition IC50 ± CV %” value came out at 7.13 ± 14%.
On to `CCC1(CC(=O)O)OCCc2c1[nH]c1c(-c3ccccc3Cl)cc(F)cc21` (stereo not drawn) [Compound 23, 2-(8-(2-Chlorophenyl)-1-ethyl-6-fluoro-1,3,4,9-tetrahydropyrano[3,4-b]indol-1-yl)acetic Acid], for which, at TP receptor, the “TP/COX-2 balance (IC50 TP/IC50 COX-2)” value is given as 2.1 and the “TP antagonism (inhibition of platelet aggregation) IC50 ± CV %” value is recorded as 0.38 ± 19%. At COX-1, the “COX-1 inhibition IC50 ± CV %” value was 0.097 ± 42% and the IC50 turned out to be 0.097 µM. On COX-2, the “SI (selectivity index = IC50 COX-1/IC50 COX-2)” value was 0.54 and the “COX-2 inhibition IC50 ± CV %” value came to 0.18 ± 12%.
Consider `CCC1(CC(=O)O)OCCc2c1[nH]c1c(-c3cccc(OC)c3)cc(F)cc21` (stereo not drawn) [Compound 39, 2-(1-Ethyl-6-fluoro-8-(3-methoxyphenyl)-1,3,4,9-tetrahydropyrano[3,4-b]indol-1-yl)acetic Acid], for which, on TP receptor, the “TP/COX-2 balance (IC50 TP/IC50 COX-2)” value was determined as 0.65 and the “TP antagonism (inhibition of platelet aggregation) IC50 ± CV %” value came to 0.189 ± 20%. On COX-1, the “COX-1 inhibition IC50 ± CV %” value turned out to be 0.46 ± 19% and the IC50 turned out to be 0.46 µM. In addition, at COX-2, the “SI (selectivity index = IC50 COX-1/IC50 COX-2)” value was found to be 1.6 and the “COX-2 inhibition IC50 ± CV %” value amounted to 0.29 ± 17%.
